Test results as given in patent US7709471B2, “Compounds” (AstraZeneca AB, priority 2006, dated 2010).

Tested on: human colon tumour cell line HT29
Assay: Cellular Assay (phosphohistone H3 Ser10 mitotic marker, HT29)
Assay type: cell-based
Conditions: HT-29, 24 h, HT29 cells, read-out: IC50 (cellular assay, phosphohistone H3)

| SMILES | IC50 [nM] |
| --- | --- |
| CN1C(=O)C2(CC2)CN(C2CCCC2)c2nc(Nc3ccc(C(=O)NC4C[C@H]5CCC[C@@H](C4)N5C)cc3F)ncc21 (stereo partly drawn) [Example 388, 4-(9′-cyclopentyl-5′-methyl-6′-oxo-5′,6′,8′,9′-tetrahydrospiro[cyclopropane-1,7′-pyrimido[5,4-b][1,4]diazepine]-2′-ylamino)-3-fluoro-N-[(1S,5R)-9-methyl-9-azabicyclo[3.3.1]non-7-yl]benzamide] | < 300 |
| CN(C)CCNC(=O)c1ccc(Nc2ncc3c(n2)N(C2CCCC2)CC2(CC2)C(=O)N3C)c(Cl)c1 [Example 390, 3-chloro-4-(9′-cyclopentyl-5′-methyl-6′-oxo-5′,6′,8′,9′-tetrahydrospiro[cyclopropane-1,7′-pyrimido[5,4-b][1,4]diazepine]-2′-ylamino)-N-(2-dimethylaminoethyl)benzamide] | < 1000 |
| CN1C(=O)C2(CC2)CN(C2CCCC2)c2nc(Nc3ccc(C(=O)NCCN4CCCC4)cc3Cl)ncc21 [Example 391, 3-chloro-4-(9′-cyclopentyl-5′-methyl-6′-oxo-5′,6′,8′,9′-tetrahydrospiro[cyclopropane-1,7′-pyrimido[5,4-b][1,4]diazepine]-2′-ylamino)-N-(2-pyrrolidin-1-ylethyl)benzamide] | < 300 |
| CN(C)CC(C)(C)CNC(=O)c1ccc(Nc2ncc3c(n2)N(C2CCCC2)CC2(CC2)C(=O)N3C)c(Cl)c1 [Example 392, 3-chloro-4-(9′-cyclopentyl-5′-methyl-6′-oxo-5′,6′,8′,9′-tetrahydrospiro[cyclopropane-1,7′-pyrimido[5,4-b][1,4]diazepine]-2′-ylamino)-N-(3-dimethylamino-2,2-dimethyl-propyl)benzamide] | < 300 |
| CCN1CCC(NC(=O)c2cc(Cl)c(Nc3ncc4c(n3)N(C3CCCC3)CC3(CC3)C(=O)N4C)cc2F)CC1 [Example 393, 5-chloro-4-(9′-cyclopentyl-5′-methyl-6′-oxo-5′,6′,8′,9′-tetrahydrospiro[cyclopropane-1,7′-pyrimido[5,4-b][1,4]diazepine]-2′-ylamino)-N-(1-ethyl-4-piperidyl)-2-fluoro-benzamide] | < 300 |
| CN1C(=O)C2(CC2)CN(C2CCCC2)c2nc(Nc3cc(F)c(C(=O)NC4CCC(N(C)C)CC4)cc3Cl)ncc21 (stereo not shown) [Example 394, 5-chloro-4-(9′-cyclopentyl-5′-methyl-6′-oxo-5′,6′,8′,9′-tetrahydrospiro[cyclopropane-1,7′-pyrimido[5,4-b][1,4]diazepine]-2′-ylamino)-N-(4-dimethylaminocyclohexyl)-2-fluoro-benzamide] | < 300 |
| CCN1CCC(NC(=O)c2cc(F)c(Nc3ncc4c(n3)N(C3CCCC3)CC3(CC3)C(=O)N4C)cc2F)CC1 [Example 395, 4-(9′-cyclopentyl-5′-methyl-6′-oxo-5′,6′,8′,9′-tetrahydrospiro[cyclopropane-1,7′-pyrimido[5,4-b][1,4]diazepine]-2′-ylamino)-N-(1-ethyl-4-piperidyl)-2,5-difluoro-benzamide] | < 300 |
| CN1CCC(NC(=O)c2cc(F)c(Nc3ncc4c(n3)N(C3CCCC3)CC3(CC3)C(=O)N4C)cc2F)CC1 [Example 396, 4-(9′-cyclopentyl-5′-methyl-6′-oxo-5′,6′,8′,9′-tetrahydrospiro[cyclopropane-1,7′-pyrimido[5,4-b][1,4]diazepine]-2′-ylamino)-2,5-difluoro-N-(1-methyl-4-piperidyl)benzamide] | < 300 |
| CN1C(=O)C2(CC2)CN(C2CCCC2)c2nc(Nc3cc(F)c(C(=O)NCCN4CCCC4)cc3F)ncc21 [Example 397, 4-(9′-cyclopentyl-5′-methyl-6′-oxo-5′,6′,8′,9′-tetrahydrospiro[cyclopropane-1,7′-pyrimido[5,4-b][1,4]diazepine]-2′-ylamino)-2,5-difluoro-N-(2-pyrrolidin-1-ylethyl)benzamide] | < 300 |
| COc1cc(C(=O)NCCN2CCCC2)c(F)cc1Nc1ncc2c(n1)N(C1CCCC1)CC1(CC1)C(=O)N2C [Example 398, 4-(9′-cyclopentyl-5′-methyl-6′-oxo-5′,6′,8′,9′-tetrahydrospiro[cyclopropane-1,7′-pyrimido[5,4-b][1,4]diazepine]-2′-ylamino)-2-fluoro-5-methoxy-N-(2-pyrrolidin-1-ylethyl)benzamide] | < 300 |
| COc1cc(C(=O)N[C@@H]2CCN(C)C2)c(F)cc1Nc1ncc2c(n1)N(C1CCCC1)CC1(CC1)C(=O)N2C [Example 399, 4-(9′-cyclopentyl-5′-methyl-6′-oxo-5′,6′,8′,9′-tetrahydrospiro[cyclopropane-1,7′-pyrimido[5,4-b][1,4]diazepine]-2′-ylamino)-2-fluoro-5-methoxy-N-[(3R)-1-methylpyrrolidin-3-yl]benzamide] | < 300 |
| CN1CC[C@@H](NC(=O)c2cc(F)c(Nc3ncc4c(n3)N(C3CCCC3)CC3(CC3)C(=O)N4C)cc2F)C1 [Example 400, 4-(9′-cyclopentyl-5′-methyl-6′-oxo-5′,6′,8′,9′-tetrahydrospiro[cyclopropane-1,7′-pyrimido[5,4-b][1,4]diazepine]-2′-ylamino)-2,5-difluoro-N-[(3R)-1-methylpyrrolidin-3-yl]benzamide] | < 300 |
| COc1cc(C(=O)NCC(C)(C)CN2CCCC2)ccc1Nc1ncc2c(n1)N(C1CCCC1)CC1(CC1)C(=O)N2C [Example 401, 4-(9′-cyclopentyl-5′-methyl-6′-oxo-5′,6′,8′,9′-tetrahydrospiro[cyclopropane-1,7′-pyrimido[5,4-b][1,4]diazepine]-2′-ylamino)-N-(2,2-dimethyl-3-pyrrolidin-1-yl-propyl)-3-methoxy-benzamide] | < 300 |

More lines, now with the values ahead:

| IC50 [nM] | SMILES |
| --- | --- |
| < 300 | COc1cc(C(=O)N[C@@H]2CCN(C)C2)c(F)cc1Nc1ncc2c(n1)N(C1CCCC1)CC(C)(C)C(=O)N2C [Example 364, 4-[(2-cyclopentyl-4,4,6-trimethyl-5-oxo-2,6,9,11-tetrazabicyclo[5.4.0]undeca-7,9,11-trien-10-yl)amino]-2-fluoro-5-methoxy-N-[(3R)-1-methylpyrrolidin-3-yl]benzamide] |
| < 300 | CN1C(=O)C(C)(C)CN(C2CCCC2)c2nc(Nc3cc(F)c(C(=O)NC4CCC(N(C)C)CC4)cc3Cl)ncc21 (stereo not shown) [Example 366, 5-chloro-4-[(2-cyclopentyl-4,4,6-trimethyl-5-oxo-2,6,9,11-tetrazabicyclo[5.4.0]undeca-7,9,11-trien-10-yl)amino]-N-(4-dimethylaminocyclohexyl)-2-fluoro-benzamide] |
| < 300 | CN1C(=O)C(C)(C)CN(C2CCCC2)c2nc(Nc3ccc(C(=O)NCC(C)(C)CN4CCCC4)cc3Cl)ncc21 [Example 367, 3-chloro-4-[(2-cyclopentyl-4,4,6-trimethyl-5-oxo-2,6,9,11-tetrazabicyclo[5.4.0]undeca-7,9,11-trien-10-yl)amino]-N-(2,2-dimethyl-3-pyrrolidin-1-yl-propyl)benzamide] |
| < 300 | COc1cc(C(=O)NCC(C)(C)CN2CCCC2)ccc1Nc1ncc2c(n1)N(C1CCCC1)CC(C)(C)C(=O)N2C [Example 368, 4-[(2-cyclopentyl-4,4,6-trimethyl-5-oxo-2,6,9,11-tetrazabicyclo[5.4.0]undeca-7,9,11-trien-10-yl)amino]-N-(2,2-dimethyl-3-pyrrolidin-1-yl-propyl)-3-methoxy-benzamide] |
| < 300 | CCN1CC[C@@H](NC(=O)c2ccc(Nc3ncc4c(n3)N(C3CCCC3)CC(C)(C)C(=O)N4C)c(OC)c2)C1 [Example 369, 4-[(2-cyclopentyl-4,4,6-trimethyl-5-oxo-2,6,9,11-tetrazabicyclo[5.4.0]undeca-7,9,11-trien-10-yl)amino]-N-[(3R)-1-ethylpyrrolidin-3-yl]-3-methoxy-benzamide] |
| < 300 | COc1cc(C(=O)NC2CCC(N(C)C)CC2)c(F)cc1Nc1ncc2c(n1)N(C1CCCC1)CC(C)(C)C(=O)N2C (stereo not shown) [Example 372, 4-[(2-cyclopentyl-4,4,6-trimethyl-5-oxo-2,6,9,11-tetrazabicyclo[5.4.0]undeca-7,9,11-trien-10-yl)amino]-N-(4-dimethylaminocyclohexyl)-2-fluoro-5-methoxy-benzamide] |
| < 300 | COc1cc(C(=O)NC2CCC(N3CCC3)CC2)ccc1Nc1ncc2c(n1)N(C1CCCC1)CC(C)(C)C(=O)N2C (stereo not shown) [Example 374, N-[4-(azetidin-1-yl)cyclohexyl]-4-[(2-cyclopentyl-4,4,6-trimethyl-5-oxo-2,6,9,11-tetrazabicyclo[5.4.0]undeca-7,9,11-trien-10-yl)amino]-3-methoxy-benzamide] |
| < 300 | CCC1(CC)CN(C2CCCC2)c2nc(Nc3ccc(C(=O)NCC(C)(C)CN4CCCC4)cc3OC)ncc2N(C)C1=O [Example 376, 4-[(2-cyclopentyl-4,4-diethyl-6-methyl-5-oxo-2,6,9,11-tetrazabicyclo[5.4.0]undeca-7,9,11-trien-10-yl)amino]-N-(2,2-dimethyl-3-pyrrolidin-1-yl-propyl)-3-methoxy-benzamide] |
| < 300 | CCN1CCC(NC(=O)c2cc(OC)c(Nc3ncc4c(n3)N(C3CCCC3)CC(CC)(CC)C(=O)N4C)cc2F)CC1 [Example 379, 4-[(2-cyclopentyl-4,4-diethyl-6-methyl-5-oxo-2,6,9,11-tetrazabicyclo[5.4.0]undeca-7,9,11-trien-10-yl)amino]-N-(1-ethyl-4-piperidyl)-2-fluoro-5-methoxy-benzamide] |
| < 300 | CCC1(CC)CN(C2CCCC2)c2nc(Nc3ccc(C(=O)NC4CCN(C)CC4)cc3OC)ncc2N(C)C1=O [Example 380, 4-[(2-cyclopentyl-4,4-diethyl-6-methyl-5-oxo-2,6,9,11-tetrazabicyclo[5.4.0]undeca-7,9,11-trien-10-yl)amino]-3-methoxy-N-(1-methyl-4-piperidyl)benzamide] |
| < 300 | COc1cc(C(=O)NCCN2CCCC2)ccc1Nc1ncc2c(n1)N(C1CCCC1)CC1(CC1)C(=O)N2C [Example 384, 4-(9′-cyclopentyl-5′-methyl-6′-oxo-5′,6′,8′,9′-tetrahydrospiro[cyclopropane-1,7′-pyrimido[5,4-b][1,4]diazepine]-2′-ylamino)-3-methoxy-N-(2-pyrrolidin-1-ylethyl)benzamide] |
| < 300 | CN1CCC(NC(=O)c2cc(Cl)c(Nc3ncc4c(n3)N(C3CCCC3)CC3(CC3)C(=O)N4C)cc2F)CC1 [Example 389, 5-chloro-4-(9′-cyclopentyl-5′-methyl-6′-oxo-5′,6′,8′,9′-tetrahydrospiro[cyclopropane-1,7′-pyrimido[5,4-b][1,4]diazepine]-2′-ylamino)-2-fluoro-N-(1-methyl-4-piperidyl)benzamide] |
